{"source": "patent US11667612B2", "about": "“Compositions and methods for delivering pharmaceutical agents” (Arizona Board of Regents on Behalf of the University of …, priority 2017, dated 2023)", "key": {"[1]": {"assay": "Karl Fischer coulometric titration, residual water content", "assay_type": "physicochemical"}, "[2]": {"test_system": "monocrotaline (MCT) rat model of PH", "assay": "In vivo hemodynamic efficacy study in PH induced rats (monocrotaline model)", "parameters": "species or system Sprague Dawley rats", "conditions": "for Right ventricle systolic pressure (RVSP): individual rats, inhaled dry powder 10 mg/kg for 14 days", "experimental": "In vivo studies were conducted in a monocrotaline (MCT) rat model with the purpose of testing the efficacy of TMP in decreasing PH. A total of 30 male Sprague Dawley rats (280-350 g) were used in this study. Rats were purchased from Charles River Laboratories International Inc. (Wilmington, Mass.). Rats were weighted weekly to monitor their health. PH was induced by injecting 60 mg/kg of MCT via intraperitoneally. The animals were divided into 5 groups (n=5) into the following categories: 1) Naïve (control), 2) Naïve+TMP, 3) MCT (PH induced) 4) MCT+ treated with vehicle (air), 5) MCT+ treated with TMP. Two weeks after MCT administration, the rats started to get the treatment via aerosolization of a dry powder formulation of SD TMP (10 mg/kg) using a Penn Century Dry Powder Insufflator™—Model DP-4M for 14 days. Right ventricle systolic pressure (RVSP) hemodynamics were performed after 2 weeks and 4 weeks after MCT administration by inserting a customized pressure transducer catheter (SPR-513, Millar Instruments, Houston, Tex.), into the right ventricle (RV) via the right jugular vein and right atrium. The transducer was connected to a Millar Transducer Control Unit TC-510 and PL3504 PowerLab 4/35 data acquisition system (ADInstruments, Inc., Colorado Springs, Colo.). At the end of pressure recording, the animals were euthanized."}, "[3]": {"assay": "In vitro aerosol dispersion performance, Next Generation Impactor (NGI)", "assay_type": "physicochemical", "conditions": "for Emitted Fraction (%) / Emitted dose / Fine Particle Dose / Fine Particle Fraction (%) / GSD / MMAD / Respirable Dose / Respirable Fraction (%): NGI 60 L/min"}, "[4]": {"assay": "Laser diffraction particle sizing and size distribution", "assay_type": "physicochemical", "experimental": "Particle size and size distributions of the particles were determined by laser diffraction with the SALD-7101 (Shimadzu Scientific Instruments, Japan) using conditions previously reported (Li X, Mansour H M., AAPS PharmSciTech. December 2011; 12(4):1420-1430; Meenach S A, et al., Int J Nanomedicine. 2013; 8:275-293; Wu X, et al., Drug design, development and therapy. 2013; 7:59-72; Wu X, et al., Int J Nanomedicine. 2013; 8:1269-1283) for measurement of the mean size and size distribution of SD particles in aqueous suspension. Samples were dispersed in ultrapure water and ultrasonicated for 10 s in water bath ultrasonicator Branson 7500 before measuring particle size. Sample particle dispersion was immediately transferred to particle size measuring cell and kept stirring during measurement in nano particle size analyzer. The low refractive index of 1.50-0.00i was used. Volume-based measurements were obtained. DV10, DV50, and DV90 were used as particle size characterization parameters. The span value was calculated using the equation defined as Span=[(DV90−DV10)/DV50] Equation 1. X-Ray Powder Diffraction (XRPD)"}, "[5]": {"test_system": "Calu-3 lung epithelial cells", "assay": "In vitro transepithelial electrical resistance (TEER) analysis", "assay_type": "cell-based, human", "conditions": "Calu-3, AIC, 100 μM", "experimental": "The cells were seeded at 500,000 cells/ml in Costar Transwells® (0.4 μm polyester membrane, 12 mm for a 12-well plate) with 0.5 ml of media on the apical side and 1.5 ml of media on the basolateral side. Media was changed every other day from the basolateral and apical side. After 10 days of growth, when the cells reached a TEER value of about 1000 Ω/cm^2 which is an indicator of a confluent monolayer at liquid covered culture (LCC) the media was removed from both sides and 800 μl of media was added to the basolateral side of the Transwells to facilitate air-interface culture (AIC) conditions. The TEER responses of the cells were measured with an Endohom 12 mm Culture Cup (World Precision Instruments, Sarasota, Fla.). […] TEER values were then recorded for up to 7 days after aerosol treatment, as previously reported (Meenach S A, 2014, supra; Meenach S A, et al., April 2016; 48(4):1701-1709).\nThe cells were seeded at 500,000 cells/ml in Costar Transwells® (0.4 μm polyester membrane, 12 mm for a 12-well plate) with 0.5 ml of media on the apical side and 1.5 ml of media on the basolateral side. […] The TEER responses of the cells were measured with an Endohom 12 mm Culture Cup (World Precision Instruments, Sarasota, Fla.). […] TEER values were then recorded for up to 7 days after aerosol treatment, as previously reported (Meenach et al., 2014, supra; Meenach et al., 2016, supra)."}, "[6]": {"conditions": "Aerolizer, listed as spray dried TMP"}, "[7]": {"conditions": "Handihaler, listed as spray dried TMP"}, "[8]": {"conditions": "Neohaler, listed as spray dried TMP"}, "[9]": {"conditions": "laser diffraction, aqueous suspension, volume-based"}}, "note": "“And” between values parts separate entries of the source, which are not always exact repeats. Equal entries are not always repeated.", "data": [{"smiles": "Cc1nc(C)c(C)nc1C", "note": "[Raw TMP, tetramethylpyrazine, reference compound]", "values": [{"measurement": "Effect on cell viability", "setting": "H358 pulmonary cell line", "value": "decrease"}, {"measurement": "Residual water content", "setting": "[1]", "value": "0.633 ± 0.251", "unit": "% w/w"}]}, {"smiles": "Cc1nc(C)c(C)nc1C", "note": "[SD TMP, tetramethylpyrazine]", "values": [{"measurement": "Effect on cell viability", "setting": "H358 pulmonary cell line", "value": "didn't affect the cell viability"}, {"measurement": "Right ventricle systolic pressure (RVSP)", "setting": "[2]; Group 2 (Naive + TMP)", "value": "20-25 mmHg and ~25 mmHg and 23.8990 mmHg and 24.7030 mmHg and 26.0550 mmHg and 19.6940 mmHg and 20.8110 mmHg and 24.2410 mmHg"}, {"measurement": "Right ventricle systolic pressure (RVSP)", "setting": "[2]; Group 5 (MCT + TMP), 4 weeks after MCT", "value": "58.6830 mmHg and 62.4200 mmHg and 43.3890 mmHg and 59.8200 mmHg and 78.2010 mmHg and 70.5310 mmHg"}, {"measurement": "Body weight", "setting": "[2]; Group 5 (MCT + TMP), measured weekly", "value": "significant loss of weight"}, {"measurement": "Decrease of RVSP relative to group 3 (MCT, 4 weeks)", "setting": "[2]; Group 5, after two weeks of aerosol treatment", "value": "20-30 mmHg"}, {"measurement": "Residual water content", "setting": "[1]", "value": "0.368±0.103", "unit": "% w/w"}, {"measurement": "Effect on cell viability", "setting": "A549 pulmonary cell line", "value": "didn't affect the cell viability"}, {"measurement": "Amount of drug found not to be toxic to pulmonary cell lines", "setting": "A549 pulmonary cell line; human, 72 h", "value": "up to 7 mg"}, {"measurement": "Emitted Fraction (%)", "setting": "[3]; Aerolizer", "value": 88, "unit": "%"}, {"measurement": "Emitted dose", "setting": "[3]; Aerolizer", "value": 79.98, "unit": "mg"}, {"measurement": "Fine Particle Dose", "setting": "[3]; Aerolizer", "value": 1.15, "unit": "mg"}, {"measurement": "Fine Particle Fraction (%)", "setting": "[3]; Aerolizer", "value": 1.41, "unit": "%"}, {"measurement": "GSD", "setting": "[3]; Aerolizer", "value": 2.88}, {"measurement": "MMAD", "setting": "[3]; Aerolizer", "value": 15.23, "unit": "μm"}, {"measurement": "Respirable Dose", "setting": "[3]; Aerolizer", "value": 8.16, "unit": "mg"}, {"measurement": "Respirable Fraction (%)", "setting": "[3]; Aerolizer", "value": "14.86 ± 8.0", "unit": "%"}, {"measurement": "Emitted Fraction (%)", "setting": "[3]; [6]", "value": "88.76 ± 7.27", "unit": "%"}, {"measurement": "Fine Particle Fraction (%)", "setting": "[3]; [6]", "value": "1.41 ± 0.57", "unit": "%"}, {"measurement": "MMAD", "setting": "[3]; [6]", "value": 15.23, "unit": "μm"}, {"measurement": "Emitted Fraction (%)", "setting": "[3]; Handihaler", "value": 100, "unit": "%"}, {"measurement": "Emitted dose", "setting": "[3]; Handihaler", "value": 86.92, "unit": "mg"}, {"measurement": "Fine Particle Dose", "setting": "[3]; Handihaler", "value": 3.33, "unit": "mg"}, {"measurement": "Fine Particle Fraction (%)", "setting": "[3]; Handihaler", "value": 3.33, "unit": "%"}, {"measurement": "GSD", "setting": "[3]; Handihaler", "value": 5.28}, {"measurement": "MMAD", "setting": "[3]; Handihaler", "value": 68.4, "unit": "μm"}, {"measurement": "Respirable Dose", "setting": "[3]; Handihaler", "value": 37.24, "unit": "mg"}, {"measurement": "Respirable Fraction (%)", "setting": "[3]; Handihaler", "value": "8.9 ± 3.87", "unit": "%"}, {"measurement": "Emitted Fraction (%)", "setting": "[3]; [7]", "value": "100 ± 2.03", "unit": "%"}, {"measurement": "Fine Particle Fraction (%)", "setting": "[3]; [7]", "value": "3.83 ± 0.42", "unit": "%"}, {"measurement": "MMAD", "setting": "[3]; [7]", "value": 68.4, "unit": "μm"}, {"measurement": "Emitted Fraction (%)", "setting": "[3]; Neohaler", "value": 88, "unit": "%"}, {"measurement": "Emitted dose", "setting": "[3]; Neohaler", "value": 79.28, "unit": "mg"}, {"measurement": "Fine Particle Dose", "setting": "[3]; Neohaler", "value": 3.48, "unit": "mg"}, {"measurement": "Fine Particle Fraction (%)", "setting": "[3]; Neohaler", "value": 4.36, "unit": "%"}, {"measurement": "MMAD", "setting": "[3]; Neohaler", "value": 43.73, "unit": "μm"}, {"measurement": "Respirable Dose", "setting": "[3]; Neohaler", "value": 25.19, "unit": "mg"}, {"measurement": "Respirable Fraction (%)", "setting": "[3]; Neohaler", "value": "14.87 ± 7.30", "unit": "%"}, {"measurement": "Emitted Fraction (%)", "setting": "[3]; [8]", "value": "88.41 ± 6.70", "unit": "%"}, {"measurement": "Fine Particle Fraction (%)", "setting": "[3]; [8]", "value": "4.36 ± 0.65", "unit": "%"}, {"measurement": "MMAD", "setting": "[3]; [8]", "value": 43.73, "unit": "μm"}, {"measurement": "Particles deposited on the first NGI stage", "setting": "[3]; in vitro aerosol stage deposition", "value": "above 90%"}, {"measurement": "Particle sizing span value", "setting": "[4]; (Dv90-Dv10)/Dv50", "value": "1.684±0.645"}, {"measurement": "Particle size distribution (size range)", "setting": "[4]; laser diffraction", "value": "4-14 μm"}, {"measurement": "Particle sizing Dv10", "setting": "[4]; [9]", "value": "4.186±0.701", "unit": "μm"}, {"measurement": "Particle sizing Dv50", "setting": "[4]; [9]", "value": "6.156±1.47 μm and 6.156 ± 1.147 μm"}, {"measurement": "Particle sizing Dv90", "setting": "[4]; [9]", "value": "14.552±4.928", "unit": "μm"}, {"measurement": "TEER (electrical resistance)", "setting": "[5]; 3 hours after treatment", "value": "decreases drastically"}, {"measurement": "TEER (electrical resistance)", "setting": "[5]; seven days of culturing after treatment", "value": "resistance was regained"}]}]}
